*1 amine or outer side, *2 acyl side, *3 side chain or, on linkers, in order; H or OH if unused. Where a SMILES comes first, the peptide text is derived from it. [ ]: non-standard residue; d: D form. ξ: configuration not given here. 2(aminomethyl)benzoyl = O=C(c1ccccc1CN[*:1])[*:2]; X1 = C[C@@H](CCCC(=O)[*:2])N[*:1]; X2 = C[C@H](CCCN[*:1])C(=O)[*:2]; ξThr(3R) = C[C@@H](O)C(N)C(=O)O; 12Ado = NCCCCCCCCCCCC(=O)O; 3Amb = NCc1cccc(C(=O)O)c1; 4Amb = NCc1ccc(C(=O)O)cc1; Aun = NCCCCCCCCCCC(=O)O; Aoc = NCCCCCCCC(=O)O; Ahx = NCCCCCC(=O)O; ξP = O=C(O)C1CCCN1; Ava = NCCCCC(=O)O; GABA = NCCCC(=O)O
What follows are compounds tested against T1, Interleukin-8 (Homo sapiens, UniProt P10145) (assay: Inhibition of Interleukin-8 (IL-8)).
T1 sequence (P10145 whole entry): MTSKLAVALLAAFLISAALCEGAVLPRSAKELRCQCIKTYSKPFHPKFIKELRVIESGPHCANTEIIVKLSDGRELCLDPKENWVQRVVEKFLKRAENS

| Ki [µM] | Compound |
| --- | --- |
| 7 | CSCC[C@H](NC(C)=O)C(=O)N[C@@H](Cc1c[nH]c2ccccc12)C(=O)N[C@@H](CC(=O)O)C(=O)N[C@@H](Cc1ccccc1)C(=O)N[C@@H](CC(=O)O)C(=O)N[C@@H](CC(=O)O)C(=O)NCCCCCC(=O)N[C@@H](CCSC)C(=O)N1CCC[C@H]1C(=O)N1CCC[C@H]1C(=O)N[C@@H](C)C(=O)N[C@@H](CC(=O)O)C(=O)N[C@@H](CCC(=O)O)C(=O)N[C@@H](CC(=O)O)C(=O)N[C@@H](Cc1ccc(O)cc1)C(=O)N[C@@H](CO)C(=O)N1CCC[C@H]1C(N)=O (Ac-MWDFDD[Ahx]MPPADEDYSP-NH2) |
| 4 | CSCC[C@H](NC(C)=O)C(=O)N[C@@H](Cc1c[nH]c2ccccc12)C(=O)N[C@@H](CC(=O)O)C(=O)N[C@@H](Cc1ccccc1)C(=O)N[C@@H](CC(=O)O)C(=O)N[C@@H](CC(=O)O)C(=O)N[C@@H](CC(C)C)C(=O)N[C@@H](CC(N)=O)C(=O)N[C@@H](Cc1ccccc1)C(=O)NCc1cccc(C(=O)N[C@@H](CCSC)C(=O)N2CCC[C@H]2C(=O)N2CCC[C@H]2C(=O)N[C@@H](C)C(=O)N[C@@H](CC(=O)O)C(=O)N[C@@H](CCC(=O)O)C(=O)N[C@@H](CC(=O)O)C(=O)N[C@@H](Cc2ccc(O)cc2)C(=O)N[C@@H](CO)C(=O)N2CCC[C@H]2C(N)=O)c1 (Ac-MWDFDDLNF[3Amb]MPPADEDYSP-NH2) |
| 13 | CSCC[C@H](NC(C)=O)C(=O)N[C@@H](Cc1c[nH]c2ccccc12)C(=O)N[C@@H](CC(=O)O)C(=O)N[C@@H](Cc1ccccc1)C(=O)N[C@@H](CC(=O)O)C(=O)N[C@@H](CC(=O)O)C(=O)N[C@@H](CC(C)C)C(=O)N[C@@H](CC(N)=O)C(=O)N[C@@H](Cc1ccccc1)C(=O)NCCCCC(=O)N[C@@H](CCSC)C(=O)N1CCC[C@H]1C(=O)N1CCC[C@H]1C(=O)N[C@@H](C)C(=O)N[C@@H](CC(=O)O)C(=O)N[C@@H](CCC(=O)O)C(=O)N[C@@H](CC(=O)O)C(=O)N[C@@H](Cc1ccc(O)cc1)C(=O)N[C@@H](CO)C(=O)N1CCC[C@H]1C(N)=O (Ac-MWDFDDLNF[Ava]MPPADEDYSP-NH2) |
| 10 | CSCC[C@H](NC(C)=O)C(=O)N[C@@H](Cc1c[nH]c2ccccc12)C(=O)N[C@@H](CC(=O)O)C(=O)N[C@@H](Cc1ccccc1)C(=O)N[C@@H](CC(=O)O)C(=O)N[C@@H](CC(=O)O)C(=O)N[C@@H](CC(C)C)C(=O)N[C@@H](CC(N)=O)C(=O)N[C@@H](Cc1ccccc1)C(=O)N[C@@H](C)CCCC(=O)N[C@@H](CCSC)C(=O)N1CCC[C@H]1C(=O)N1CCC[C@H]1C(=O)N[C@@H](C)C(=O)N[C@@H](CC(=O)O)C(=O)N[C@@H](CCC(=O)O)C(=O)N[C@@H](CC(=O)O)C(=O)N[C@@H](Cc1ccc(O)cc1)C(=O)N[C@@H](CO)C(=O)N1CCC[C@H]1C(N)=O (Ac-MWDFDDLNF[X1]MPPADEDYSP-NH2) |
| 14 | CSCC[C@H](NC(C)=O)C(=O)N[C@@H](Cc1c[nH]c2ccccc12)C(=O)N[C@@H](CC(=O)O)C(=O)N[C@@H](Cc1ccccc1)C(=O)N[C@@H](CC(=O)O)C(=O)N[C@@H](CC(=O)O)C(=O)NCCCC(=O)N[C@@H](CCSC)C(=O)N1CCC[C@H]1C(=O)N1CCC[C@H]1C(=O)N[C@@H](C)C(=O)N[C@@H](CC(=O)O)C(=O)N[C@@H](CCC(=O)O)C(=O)N[C@@H](CC(=O)O)C(=O)N[C@@H](Cc1ccc(O)cc1)C(=O)N[C@@H](CO)C(=O)N1CCC[C@H]1C(N)=O (Ac-MWDFDD[GABA]MPPADEDYSP-NH2) |
| 9.3 | CSCC[C@H](NC(C)=O)C(=O)N[C@@H](Cc1c[nH]c2ccccc12)C(=O)N[C@@H](CC(=O)O)C(=O)N[C@@H](Cc1ccccc1)C(=O)N[C@@H](CC(=O)O)C(=O)N[C@@H](CC(=O)O)C(=O)N[C@@H](CC(C)C)C(=O)N[C@@H](CC(N)=O)C(=O)N[C@@H](Cc1ccccc1)C(=O)NCc1ccccc1C(=O)N[C@@H](CCSC)C(=O)N1CCC[C@H]1C(=O)N1CCC[C@H]1C(=O)N[C@@H](C)C(=O)N[C@@H](CC(=O)O)C(=O)N[C@@H](CCC(=O)O)C(=O)N[C@@H](CC(=O)O)C(=O)N[C@@H](Cc1ccc(O)cc1)C(=O)N[C@@H](CO)C(=O)N1CCCC1C(N)=O (some centres undefined) (Ac-MWDFDDLNF[2(aminomethyl)benzoyl]MPPADEDYS[ξP]-NH2) |
| 13 | Ac-MWDFDDLNFTGMPPADEDYSP-NH2 |
| 2.3 | CSCC[C@H](NC(C)=O)C(=O)N[C@@H](Cc1c[nH]c2ccccc12)C(=O)N[C@@H](CC(=O)O)C(=O)N[C@@H](Cc1ccccc1)C(=O)N[C@@H](CC(=O)O)C(=O)N[C@@H](CC(=O)O)C(=O)N[C@@H](CC(C)C)C(=O)N[C@@H](CC(N)=O)C(=O)N[C@@H](Cc1ccccc1)C(=O)NCc1ccc(C(=O)N[C@@H](CCSC)C(=O)N2CCC[C@H]2C(=O)N2CCC[C@H]2C(=O)N[C@@H](C)C(=O)N[C@@H](CC(=O)O)C(=O)N[C@@H](CCC(=O)O)C(=O)N[C@@H](CC(=O)O)C(=O)N[C@@H](Cc2ccc(O)cc2)C(=O)N[C@@H](CO)C(=O)N2CCC[C@H]2C(N)=O)cc1 (Ac-MWDFDDLNF[4Amb]MPPADEDYSP-NH2) |
| 31 | Ac-MWDFDDGMPPADEDYSP-NH2 |
| 383 | CSCC[C@H](NC(C)=O)C(=O)N[C@@H](Cc1c[nH]c2ccccc12)C(=O)N[C@@H](CC(=O)O)C(=O)N[C@@H](Cc1ccccc1)C(=O)N[C@@H](CC(=O)O)C(=O)N[C@@H](CC(=O)O)C(=O)N[C@@H](CC(C)C)C(=O)N[C@@H](CC(N)=O)C(=O)N[C@@H](Cc1ccccc1)C(=O)NC(C(=O)NCCC[C@@H](C)C(=O)N1CCC[C@H]1C(=O)N1CCC[C@H]1C(=O)N[C@@H](C)C(=O)N[C@@H](CC(=O)O)C(=O)N[C@@H](CCC(=O)O)C(=O)N[C@@H](CC(=O)O)C(=O)N[C@@H](Cc1ccc(O)cc1)C(=O)N[C@@H](CO)C(=O)N1CCC[C@H]1C(N)=O)[C@@H](C)O (stereo partly drawn) (Ac-MWDFDDLNF[ξThr(3R)][X2]PPADEDYSP-NH2) |
| 4 | CSCC[C@H](NC(C)=O)C(=O)N[C@@H](Cc1c[nH]c2ccccc12)C(=O)N[C@@H](CC(=O)O)C(=O)N[C@@H](Cc1ccccc1)C(=O)N[C@@H](CC(=O)O)C(=O)N[C@@H](CC(=O)O)C(=O)NCCCCCCCCCCCC(=O)N[C@@H](CCSC)C(=O)N1CCC[C@H]1C(=O)N1CCC[C@H]1C(=O)N[C@@H](C)C(=O)N[C@@H](CC(=O)O)C(=O)N[C@@H](CCC(=O)O)C(=O)N[C@@H](CC(=O)O)C(=O)N[C@@H](Cc1ccc(O)cc1)C(=O)N[C@@H](CO)C(=O)N1CCC[C@H]1C(N)=O (Ac-MWDFDD[12Ado]MPPADEDYSP-NH2) |
| 12 | CSCC[C@H](NC(C)=O)C(=O)N[C@@H](Cc1c[nH]c2ccccc12)C(=O)N[C@@H](CC(=O)O)C(=O)N[C@@H](Cc1ccccc1)C(=O)N[C@@H](CC(=O)O)C(=O)N[C@@H](CC(=O)O)C(=O)NCCCCCCCC(=O)N[C@@H](CCSC)C(=O)N1CCC[C@H]1C(=O)N1CCC[C@H]1C(=O)N[C@@H](C)C(=O)N[C@@H](CC(=O)O)C(=O)N[C@@H](CCC(=O)O)C(=O)N[C@@H](CC(=O)O)C(=O)N[C@@H](Cc1ccc(O)cc1)C(=O)N[C@@H](CO)C(=O)N1CCC[C@H]1C(N)=O (Ac-MWDFDD[Aoc]MPPADEDYSP-NH2) |
| 106 | CSCC[C@H](NC(C)=O)C(=O)N[C@@H](Cc1c[nH]c2ccccc12)C(=O)N[C@@H](CC(=O)O)C(=O)N[C@@H](Cc1ccccc1)C(=O)N[C@@H](CC(=O)O)C(=O)N[C@@H](CC(=O)O)C(=O)N[C@@H](CC(C)C)C(=O)N[C@@H](CC(N)=O)C(=O)N[C@@H](Cc1ccccc1)C(=O)NC(C(=O)NCCCCC(=O)N1CCC[C@H]1C(=O)N1CCC[C@H]1C(=O)N[C@@H](C)C(=O)N[C@@H](CC(=O)O)C(=O)N[C@@H](CCC(=O)O)C(=O)N[C@@H](CC(=O)O)C(=O)N[C@@H](Cc1ccc(O)cc1)C(=O)N[C@@H](CO)C(=O)N1CCC[C@H]1C(N)=O)[C@@H](C)O (stereo partly drawn) (Ac-MWDFDDLNF[ξThr(3R)][Ava]PPADEDYSP-NH2) |
| 6 | CSCC[C@H](NC(C)=O)C(=O)N[C@@H](Cc1c[nH]c2ccccc12)C(=O)N[C@@H](CC(=O)O)C(=O)N[C@@H](Cc1ccccc1)C(=O)N[C@@H](CC(=O)O)C(=O)N[C@@H](CC(=O)O)C(=O)NCCCCCCCCCCC(=O)N[C@@H](CCSC)C(=O)N1CCC[C@H]1C(=O)N1CCC[C@H]1C(=O)N[C@@H](C)C(=O)N[C@@H](CC(=O)O)C(=O)N[C@@H](CCC(=O)O)C(=O)N[C@@H](CC(=O)O)C(=O)N[C@@H](Cc1ccc(O)cc1)C(=O)N[C@@H](CO)C(=O)N1CCC[C@H]1C(N)=O (Ac-MWDFDD[Aun]MPPADEDYSP-NH2) |
